What was measured:
PLK1 [1] = target: T1, PLK1 (Homo sapiens, UniProt P53350); test: In vitro PLK1 ELISA assay (biochemical); parameters: purchased Cell Signalling 7728
In short: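 Commercial PLK1 phosphorylates neutravidin-captured biotinylated CHK2 peptide for 45 min at room temperature in HEPES pH 7.2 with Mg2+/Mn2+/DTT, compounds at 10 μM to 0.005 μM. Phospho-CHK2(T68) antibody plus HRP secondary gives chemiluminescent read-out used for IC50.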

PLK1 [2] = target: T1, PLK1; test: Cellular PLK1 assay in K562 cells overexpressing CDC25C; type: cell-based; parameters: endogenous in cells; host or cells: K562 (human chronic myelogenous leukemia) overexpressing CDC25C, nocodazole-arrested; conditions: nocodazole arrested, cdc25c p-Ser198 readout
In short: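 K562 cells overexpressing CDC25C were arrested with 333 nM nocodazole for 18 h at 37 °C, then exposed to compound at 8 points from 10 μM to 0.005 μM in duplicate for 120 min. After fixation and permeabilization, cells were stained for cdc25c pSer198 with a PE secondary and read by flow cytometry, 10,000 cells per well.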

[3] = ELISA, CHK2-derived peptide substrate, read-out: PLK1 IC50 (μM) biochemical assay
[4] = read-out: IC50 in biochemical ELISA assay (less than 0.01 μM)
[5] = read-out: IC50 in biochemical in vitro PLK1 ELISA assay (less than 10 μM)

T1 sequence (P53350 whole entry): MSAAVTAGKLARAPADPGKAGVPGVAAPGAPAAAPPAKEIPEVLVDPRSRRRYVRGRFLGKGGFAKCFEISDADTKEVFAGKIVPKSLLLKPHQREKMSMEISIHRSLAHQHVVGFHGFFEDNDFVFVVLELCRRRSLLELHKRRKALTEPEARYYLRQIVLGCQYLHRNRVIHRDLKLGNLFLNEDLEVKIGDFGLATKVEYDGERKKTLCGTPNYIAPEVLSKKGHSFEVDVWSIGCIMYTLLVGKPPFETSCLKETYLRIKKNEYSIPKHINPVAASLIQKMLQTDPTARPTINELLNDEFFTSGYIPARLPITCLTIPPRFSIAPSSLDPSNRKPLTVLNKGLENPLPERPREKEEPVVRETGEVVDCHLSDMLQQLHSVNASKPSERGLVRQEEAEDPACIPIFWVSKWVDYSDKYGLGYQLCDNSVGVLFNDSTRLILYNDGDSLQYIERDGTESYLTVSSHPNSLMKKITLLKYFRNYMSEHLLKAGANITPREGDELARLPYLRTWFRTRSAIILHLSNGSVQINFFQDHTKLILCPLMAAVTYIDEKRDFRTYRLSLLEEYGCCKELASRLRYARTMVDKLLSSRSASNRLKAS

IC50 (PLK1 [1]; [3]) | IC50 (PLK1 [1]; [4]) | IC50 (PLK1 [1]; [5]) | IC50 (PLK1 [2]) | Compound
< 0.5 µM | < 0.01 µM | < 10 µM | < 0.5 µM | CN1CCN(c2cc(Nc3ncc(F)c(Nc4ccc5c(n4)NC(=O)CO5)n3)cc(C3CC3)c2)CC1 [compound 50, 6-(2-(3-cyclopropyl-5-(4-methylpiperazin-1-yl)phenylamino)-5-fluoro-pyrimidin-4-ylamino)-2H-pyrido[3,2-b][1,4]oxazin-3(4H)-one]
< 0.5 µM | < 0.01 µM | < 10 µM | 0.5 to 5 µM | Cc1cnc(Nc2cccc(N3CCN(C)CC3)c2)nc1Nc1ccc2c(n1)NC(=O)CO2 [compound 51, 6-(5-methyl-2-(3-(4-methylpiperazin-1-yl)phenylamino)pyrimidin-4-ylamino)-2H-pyrido[3,2-b][1,4]oxazin-3(4H)-one]
< 0.5 µM | – | < 10 µM | 0.5 to 5 µM | COc1cnc(Nc2cccc(N3CCN(C)CC3)c2)nc1Nc1ccc2c(n1)NCCO2 [compound 52, N4-(3,4-dihydro-2H-pyrido[3,2-b][1,4]oxazin-6-yl)-5-methoxy-N2-(3-(4-methylpiperazin-1-yl)phenyl)pyrimidine-2,4-diamine]
0.5 to 5 µM | – | < 10 µM | ≥ 10 µM | CN1CCN(c2cccc(Nc3ncc(F)c(N(CC4CC4)c4ccc5c(n4)NCCO5)n3)c2)CC1 [compound 53, N4-(cyclopropylmethyl)-N4-(3,4-dihydro-2H-pyrido[3,2-b][1,4]oxazin-6-yl)-5-fluoro-N2-(3-(4-methylpiperazin-1-yl)phenyl)pyrimidine-2,4-diamine]
5 to 10 µM | – | < 10 µM | ≥ 10 µM | CN1CCN(c2cccc(Nc3ncc(F)c(N(c4ccc5c(n4)NCCO5)C4CCCC4)n3)c2)CC1 [compound 54, N4-cyclopentyl-N4-(3,4-dihydro-2H-pyrido[3,2-b][1,4]oxazin-6-yl)-5-fluoro-N2-(3-(4-methylpiperazin-1-yl)phenyl)pyrimidine-2,4-diamine]
< 0.5 µM | < 0.01 µM | < 10 µM | < 0.5 µM | CN1CCN(c2cccc(Nc3ncc(C(F)(F)F)c(Nc4ccc5c(n4)NCCO5)n3)c2)CC1 [compound 55, N4-(3,4-dihydro-2H-pyrido[3,2-b][1,4]oxazin-6-yl)-N2-(3-(4-methyl-piperazin-1-yl)phenyl)-5-(trifluoro-methyl)pyrimidine-2,4-diamine]
< 0.5 µM | – | < 10 µM | ≥ 10 µM | COc1cnc(Nc2cccc(N3CCN(C)CC3)c2)nc1Nc1ccc2c(n1)NC(=O)CO2 [compound 56, 6-(5-methoxy-2-(3-(4-methylpiperazin-1-yl)phenylamino)pyrimidin-4-ylamino)-2H-pyrido[3,2-b][1,4]oxazin-3(4H)-one]
0.5 to 5 µM | – | < 10 µM | ≥ 10 µM | Cc1cc(Nc2ncc(C)c(Nc3ccc4c(n3)N(C)C(=O)CO4)n2)ccc1N1CCN(C)CC1 [compound 95, 4-methyl-6-(5-methyl-2-(3-methyl-4-(4-methylpiperazin-1-yl)phenylamino)pyrimidin-4-ylamino)-2H-pyrido[3,2-b][1,4]oxazin-3(4H)-one]
5 to 10 µM | – | < 10 µM | ≥ 10 µM | Cc1cc(Nc2ncc(C)c(Nc3ccc4c(n3)NC(=O)C(C)(C)O4)n2)ccc1N1CCN(C)CC1 [compound 96, 2,2-dimethyl-6-(5-methyl-2-(3-methyl-4-(4-methylpiperazin-1-yl)phenylamino)pyrimidin-4-ylamino)-2H-pyrido[3,2-b][1,4]oxazin-3(4H)-one]
< 0.5 µM | – | < 10 µM | 0.5 to 5 µM | CCCN1C(=O)COc2ccc(Nc3nc(Nc4ccc(N5CCN(C)CC5)c(C)c4)ncc3C)nc21 [compound 97, 6-(5-methyl-2-(3-methyl-4-(4-methylpiperazin-1-yl)phenylamino)pyrimidin-4-ylamino)-4-propyl-2H-pyrido[3,2-b][1,4]oxazin-3(4H)-one]
< 0.5 µM | – | < 10 µM | 0.5 to 5 µM | CCN1C(=O)COc2ccc(Nc3nc(Nc4ccc(N5CCN(C)CC5)nc4)ncc3C)nc21 [compound 101, 4-ethyl-6-(5-methyl-2-(6-(4-methylpiperazin-1-yl)pyridin-3-ylamino)pyrimidin-4-ylamino)-2H-pyrido[3,2-b][1,4]oxazin-3(4H)-one]
< 0.5 µM | – | < 10 µM | 0.5 to 5 µM | CCCN1C(=O)COc2ccc(Nc3nc(Nc4ccc(N5CC6CC5CN6C)c(C)c4)ncc3C)nc21 (stereo not shown) [compound 107, 6-(5-methyl-2-(3-methyl-4-(5-methyl-2,5-diazabicyclo[2.2.1]heptan-2-yl)phenylamino)pyrimidin-4-ylamino)-4-propyl-2H-pyrido[3,2-b][1,4]oxazin-3(4H)-one]
< 0.5 µM | – | < 10 µM | 0.5 to 5 µM | CN1CCN(c2cccc(Nc3ncc(F)c(Nc4ccc5c(n4)N(CC4CC4)C(=O)CO5)n3)c2)CC1 [compound 108, 4-(cyclopropylmethyl)-6-(5-fluoro-2-(3-(4-methylpiperazin-1-yl)phenylamino)pyrimidin-4-ylamino)-2H-pyrido[3,2-b][1,4]oxazin-3(4H)-one]
< 0.5 µM | – | < 10 µM | 0.5 to 5 µM | CN1CCN(c2cccc(Nc3ncc(F)c(Nc4ccc5c(n4)N(CC4CCC4)C(=O)CO5)n3)c2)CC1 [compound 109, 4-(cyclobutylmethyl)-6-(5-fluoro-2-(3-(4-methylpiperazin-1-yl)phenylamino)pyrimidin-4-ylamino)-2H-pyrido[3,2-b][1,4]oxazin-3(4H)-one]
5 to 10 µM | – | < 10 µM | ≥ 10 µM | CN1CCN(c2cccc(Nc3ncc(F)c(Nc4ccc5c(n4)N(CC4CCCCC4)C(=O)CO5)n3)c2)CC1 [compound 110, 4-(cyclohexylmethyl)-6-(5-fluoro-2-(3-(4-methylpiperazin-1-yl)phenylamino)pyrimidin-4-ylamino)-2H-pyrido[3,2-b][1,4]oxazin-3(4H)-one]
≥ 10 µM | – | – | ≥ 10 µM | Cc1cc(Nc2ncc(F)c(Nc3ccc4c(n3)N(CC3CCC3)C(=O)CO4)n2)ccc1N1CCN(C)CC1 [compound 112, 4-(cyclobutylmethyl)-6-(5-fluoro-2-(3-methyl-4-(4-methylpiperazin-1-yl)phenylamino)pyrimidin-4-ylamino)-2H-pyrido[3,2-b][1,4]oxazin-3(4H)-one]
≥ 10 µM | – | – | ≥ 10 µM | Cc1cc(Nc2ncc(F)c(Nc3ccc4c(n3)N(CC3CCCCC3)C(=O)CO4)n2)ccc1N1CCN(C)CC1 [compound 113, 4-(cyclohexylmethyl)-6-(5-fluoro-2-(3-methyl-4-(4-methylpiperazin-1-yl)phenylamino)pyrimidin-4-ylamino)-2H-pyrido[3,2-b][1,4]oxazin-3(4H)-one]
0.5 to 5 µM | – | < 10 µM | ≥ 10 µM | Cc1cc(Nc2ncc(C)c(Nc3ccc4c(n3)N(CC3CC3)C(=O)CO4)n2)ccc1N1CCN(C)CC1 [compound 114, 4-(cyclopropylmethyl)-6-(5-methyl-2-(3-methyl-4-(4-methyl-piperazin-1-yl)phenylamino)pyrimidin-4-ylamino)-2H-pyrido[3,2-b][1,4]oxazin-3(4H)-one]
0.5 to 5 µM | – | < 10 µM | ≥ 10 µM | Cc1cc(Nc2ncc(C)c(Nc3ccc4c(n3)N(CC3CCC3)C(=O)CO4)n2)ccc1N1CCN(C)CC1 [compound 115, 4-(cyclobutylmethyl)-6-(5-methyl-2-(3-methyl-4-(4-methylpiperazin-1-yl)phenylamino)pyrimidin-4-ylamino)-2H-pyrido[3,2-b][1,4]oxazin-3(4H)-one]
